PMC11054303, “Design and Synthesis of Novel N-Benzylidene Derivatives of 3-Amino-4-imino-3,5-dihydro-4H-chromeno[2,3-d]pyrimidine under Microwave, In Silico ADME Predictions, In Vitro Antitumoral Activities and In Vivo Toxicity” (Pharmaceuticals, 2024)
pIC50: −log10 of the molar value.

Legend:
[1] = tested on: zebrafish Danio rerio embryos; assay: Zebrafish embryo toxicity assay (Zebratox, FET); settings: low doses
Method: (§5) Fertilized eggs at 24–48 h post-fertilization (hpf) were selected and transferred to a 96-well plate (1 embryo/well). […] DMSO (0.6%) was used as vehicle control for the test compounds. The exposure duration continued up to 72 hpf because it is the endpoint of embryonic development [41]. The dead embryos were eliminated, and the fertilized eggs were imaged at 0, 24, 48 and 72 hpf.
(§6) Eggs were collected 2 h post-fertilization (hpf) and kept in glass Petri dishes containing water for subsequent examination under a binocular microscope to confirm fertilization. […] Chemical treatments were performed by adding DMSO alone (negative control), or test molecule. These experiments were performed in four technical replicates.
(§7) The experiments were performed using a Zeiss inverted fluorescent microscope (Observer Z1). The zebrafish toxicological test (Zebratox) was realized as follows: the 24 h post-fertilization embryos were arrayed by hand with one embryo per well in black-walled 96-well microplates for fluorescence assays (Perkin Elmer, Waltham, MA, USA). The embryos were treated before hatching from 0 to 72 h post-fertilization. The 20 mM DMSO stock chemicals were diluted in fish water and added to the wells at final concentrations from 0.0 2µM to 5 μM. The negative control (0.25% DMSO) was added to each replicate plate. The experiments were realized in triplicate in three independent plates. […] The zebrafish fertilized eggs were provided by the ImPACcell-Biosit Zebrafish facilities (Rennes, France).

[2] = tested on: zebrafish Danio rerio embryos; settings: transgenic line Tg(kdrl:Hsa.HRAS-mCherry)s896, zebrafish (Danio rerio), in vivo, 72 hpf, 1.67 μM
Method: as §5, §6, §7

[3] = tested on: zebrafish Danio rerio embryos; assay: Angiogenesis of vessels in mCherry transgenic zebrafish embryos; type: in vivo; settings: 1.67 μM, 72 hpf
Source text: Another interest of zebrafish Danio rerio is the possibility to deeply evaluate the effects of angiogenic compounds. In our model, the formation of most vessels is complete, the circulation is present, and the heart is beating after 28 hpf of development. Angiogenesis begins in the somites and in the anterior portion of the embryos. Many zebrafish blood vessels form by angiogenic sprouting and appear to require the same proteins required for blood vessel growth in mammals. By using the mCherry line transgenic zebrafish, it is possible to analyze the direct effect of a compound on the angiogenesis of dorsal vessels. Zebrafish embryos can survive up to a week without an intact circulatory system because defective vessel formation has no immediate lethal effect.
These experiments were performed in four technical replicates.

T47D breast cancer cells = tested on: T47D breast cancer cells; set-up: method as in PMID 15542776; settings: cited from earlier work
Caco2 = assay: Antiproliferative assay, Caco2; type: cell-based, human; settings: Homo sapiens, Caco-2; 48 h incubation; average of three assays, standard error ± 0.5 μM
Method: (§1) The potential antiproliferative activity of these novel 3-(N-phenylmethyliden)amino-4-imino-3,5-dihydro-4H-chromeno[2,3-d]pyrimidine 10(a-i) and 10-(N-phenylmethyliden)amino-11-imino-11H-naphto[1′,2′:5,6]pyrano[2,3-d]pyrimidine 10(j-l) was evaluated in a panel of eight tumoral cell lines and in diploid skin fibroblasts used as normal cell lines for control. For these antitumor assays, chosen cell lines represent diverse types of human cancer, which are, respectively, human hepatocellular carcinoma (Huh7 D12), human colon adenocarcinoma (Caco2), human breast adenocarcinoma (MDA-MB231), MDA-MB468 for human breast carcinoma which correspond to the Triple Negative Breast Cancer (TNBC), human colon carcinoma (HCT116), PC3 as cell line initiated from bone metastasis of grade IV prostatic adenocarcinoma from a person, MCF7 as breast cancer line isolated from a person and PANC1, as human pancreatic cancer cell line. The potential antiproliferative activity was preliminarily evaluated in vitro at a 25 μM single dose.
(§2) The IC50 was calculated from the full dose-response curve and used as a parameter for the antiproliferative activity of the new compounds.
(§3) Skin diploid fibroblastic cells were provided by BIOPREDIC International Company (Rennes, France). Huh-7D12 (Ref ECACC: 01042712), Caco2 (Ref ECACC: 86010202), MDA-MB-231 (Ref ECACC: 92020424), MDA-MB-468, HCT-116 (Ref ECACC: 91091005), PC3 (Ref ECACC: 90112714), and MCF7 cell lines were obtained from the ECACC collection. PANC1 cell lines, a generous gift of LBAI Inserm 1227 (Brest, France). Cells were grown according to ECACC recommendations in DMEM for Huh-D12, MDA-MB-231, MDA-MB-468 and fibroblast, in EMEM for Caco2, in McCoy’s for HCT-116 and RPMI for PC3 at 37 °C and 5% CO2. All culture media with 10% of FBS, 1% of penicillin-streptomycin and 2 mM glutamine.
(§4) Chemicals were solubilized in DMSO at a concentration of 10 mM (stock solution) and diluted in a culture medium to the desired final concentrations. […] The toxicity test of the chemicals on these cells was as follows: 2 × 10^3 cells for HCT-116 cells or 4 × 10^3 for the other cells were seeded in 96-multi-well plates in triplicate and left for 24 h for attachment, spreading and growing. Then, cells were exposed for 48 h to increasing concentrations of chemicals, ranging from 0.1 μM to 25 μM, in a final volume of 120 μL of culture medium. After 48 h of treatment, cells were washed in PBS and fixed in a cooled 90% ethanol/5% acetic acid solution for 20 min. The nuclei were stained with Hoechst 3342 (B2261 Merck Sigma-Aldrich) and counted. Image acquisition and analysis were performed using automated imaging analysis with a Cellomics Arrayscan VTI/HCS Reader (Thermo/Scientific, Waltham, MA, USA). The survival percentages were calculated as the percentage of cell number after chemical treatment over cell number after DMSO treatment. The IC50 was graphically determined.

[4] = Antiproliferative assay, Caco2; type: cell-based, human; settings: human, Caco-2; SI = IC50 fibroblasts/IC50 on Caco2; read-out: Selectivity Index (SI) Caco2
Method: as §1, §2, §3, §4

MDA MB468 = assay: Antiproliferative assay, MDA MB468; type: cell-based, human; settings: for pIC50: Homo sapiens, MDA-MB-468, 48 h incubation, average of three assays, standard error ± 0.5 μM
Method: as §1, §2, §3, §4

PC3 = assay: Antiproliferative assay, PC3; type: cell-based, human; settings: for pIC50: Homo sapiens, PC-3, 48 h incubation, average of three assays, standard error ± 0.5 μM
Method: as §1, §2, §3, §4

MDA MB231 = assay: Antiproliferative assay, MDA MB231; type: cell-based, human; settings: for pIC50: Homo sapiens, MDA-MB-231, 48 h incubation, average of three assays, standard error ± 0.5 μM
Method: as §1, §2, §3, §4

HCT 116 = assay: Antiproliferative assay, HCT 116; type: cell-based, human; settings: for pIC50: Homo sapiens, HCT-116, 48 h incubation, average of three assays, standard error ± 0.5 μM; for Selectivity Index (SI) HCT 116: SI = IC50 fibroblasts/IC50 on HCT 116
Method: as §1, §2, §3, §4

Fibroblasts = assay: Antiproliferative assay, diploid skin fibroblasts (normal cells); type: cell-based; settings: Fibroblast; 48 h incubation; average of three assays, standard error ± 0.5 μM
Method: as §1, §2, §3, §4

MCF7 = assay: Antiproliferative assay, MCF7; type: cell-based, human; settings: for pIC50: Homo sapiens, MCF7, 48 h incubation, average of three assays, standard error ± 0.5 μM
Method: as §1, §2, §3, §4

Huh7 D12 = assay: Antiproliferative assay, Huh7 D12; type: cell-based, human; settings: for pIC50: Homo sapiens, Huh-7D12, 48 h incubation, average of three assays, standard error ± 0.5 μM
Method: as §1, §2, §3, §4

tumor cell lines = assay: Antiproliferative assay, panel of tumoral cell lines; type: cell-based; settings: Homo sapiens, 48 h, summary over tumoral cell lines of Table 3, 48 h; read-out: IC50 on tumor cell lines (span over the panel)
Method: as §1, §2, §3, §4

PANC1 = assay: Antiproliferative assay, PANC1; type: cell-based, human; settings: Homo sapiens, PANC-1; 48 h incubation; average of three assays, standard error ± 0.5 μM
Method: as §1, §2, §3, §4

melting point [°C]	pIC50 (Caco2)	pIC50 (PC3)	pIC50 (HCT 116)	pIC50 (MCF7)	pIC50 (Huh7 D12)	pIC50 (tumor cell lines)	Compound	pIC50 (MDA MB468)	pIC50 (MDA MB231)	Selectivity Index (SI) HCT 116 (HCT 116)	pIC50 (Fibroblasts)	other results
232 to 234	< 4.60	< 4.60	5.00	< 4.60	< 4.60	< 4.60	N=c1c2c(ncn1/N=C/c1ccccc1)Oc1ccccc1C2 [10f, (3E) 3-N-(Phenylmethylidene)amino-4-imino-3,5-dihydro-4H-chromeno[2,3-d]pyrimidine]	< 4.60	< 4.60	> 2.5	< 4.60	pIC50 (PANC1): < 4.60
≥ 260	< 4.60	< 4.60	< 4.60	< 4.60	< 4.60	< 4.60	N=c1c2c(ncn1/N=C/c1ccccc1)Oc1ccc3ccccc3c1C2 [10l, (10E) 10-N-(Phenylmethylidene)amino-11-imino-11H-naphto[1′,2′:5,6]pyrano[2,3-d]pyrimidine]	< 4.60	< 4.60	–	< 4.60	–

The next lines start with the compound.

Compound	melting point [°C]	pIC50 (Caco2)	pIC50 (PC3)	pIC50 (HCT 116)	pIC50 (MCF7)	pIC50 (Huh7 D12)	pIC50 (tumor cell lines)	pIC50 (MDA MB468)	pIC50 (MDA MB231)	Selectivity Index (SI) HCT 116 (HCT 116)	pIC50 (Fibroblasts)	other results
CNC(=O)c1cc(Oc2ccc(NC(=O)Nc3ccc(Cl)c(C(F)(F)F)c3)cc2)ccn1 [sorafenib, reference compound]	–	–	–	–	–	–	–	–	–	–	–	development of the embryos ([1]; 24 hpf): normal development; morphological development of the embryos ([1]; 48 hpf): morphological development is delayed; toxicity, fraction of the embryos [2]: 4/5; effect on angiogenesis of the vessels [3]: absence of angiogenesis of the vessels; effect on angiogenesis of the vessels ([3]; listed as Sorafenib): inhibition of the dorsal vessel vascularization
2-amino-4-(3-bromo-4,5-dimethoxyphenyl)-4H-chromene-3-carbonitrile [MX 58151]	–	–	–	–	–	–	–	–	–	–	–	GI50 (T47D breast cancer cells): 0.037 µM
COc1cccc2c1Oc1ncn(/N=C/c3ccccc3)c(=N)c1C2 [10i, (3E) 3-N-(Phenylmethylidene)amino-4-imino-9-methoxy-3,5-dihydro-4H-chromeno[2,3-d]pyrimidine]	252 to 254	6.10	6.11	6.21	6.35	6.31	–	6.52	6.22	> 40.3	< 4.60	selectivity ratio at 48 h [4]: > 31.3; Selectivity Index (SI) MDA MB468 (MDA MB468; SI = IC50 fibroblasts/IC50 on MDA MB468): > 83.3; Selectivity Index (SI) PC3 (PC3; SI = IC50 fibroblasts/IC50 on PC3): > 32.5; Selectivity Index (SI) MDA MB231 (MDA MB231; SI = IC50 fibroblasts/IC50 on MDA MB231): > 41.7; Selectivity Index (SI) MCF7 (MCF7; SI = IC50 fibroblasts/IC50 on MCF7): > 55.6; Selectivity Index (SI) Huh7 D12 (Huh7 D12; SI = IC50 fibroblasts/IC50 on Huh7 D12): > 51.0
